Source: patent US20240158446A1, “CYCLIC COMPOUND HAVING SELECTIVE INHIBITORY ACTION ON KRAS OVER HRAS AND NRAS” (CHUGAI SEIYAKU KABUSHIKI KAISHA, priority 2021, published 2024)

What was measured:
[1] = target: GDP-bound KRAS wild-type protein (Homo sapiens, UniProt P01116); assay: Binding to KRAS by surface plasmon resonance (SPR), Single Cycle Kinetics; conditions: SPR, Single Cycle Kinetics, 1:1 binding model; GDP-bound KRAS wild-type protein; read-out: KRAS KD
[2] = target: GDP-bound NRAS wild-type protein (Homo sapiens, UniProt P01111); assay: Binding to NRAS by surface plasmon resonance (SPR), Single Cycle Kinetics; conditions: SPR; GDP-bound NRAS wild-type protein vs GDP-bound KRAS wild-type protein; KD ratio class
Chain of GDP-bound NRAS wild-type protein (P01111 whole entry): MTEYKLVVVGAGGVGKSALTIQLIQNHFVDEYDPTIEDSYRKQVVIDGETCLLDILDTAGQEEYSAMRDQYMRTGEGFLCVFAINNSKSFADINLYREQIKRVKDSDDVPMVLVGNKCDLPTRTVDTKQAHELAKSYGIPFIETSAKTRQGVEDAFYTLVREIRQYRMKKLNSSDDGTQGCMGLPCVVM

[3] = target: GDP-bound HRAS wild-type protein (Homo sapiens, UniProt P01112); assay: Binding to HRAS by surface plasmon resonance (SPR), Single Cycle Kinetics; conditions: SPR; GDP-bound HRAS wild-type protein vs GDP-bound KRAS wild-type protein; KD ratio class
Chain of GDP-bound HRAS wild-type protein (P01112 whole entry): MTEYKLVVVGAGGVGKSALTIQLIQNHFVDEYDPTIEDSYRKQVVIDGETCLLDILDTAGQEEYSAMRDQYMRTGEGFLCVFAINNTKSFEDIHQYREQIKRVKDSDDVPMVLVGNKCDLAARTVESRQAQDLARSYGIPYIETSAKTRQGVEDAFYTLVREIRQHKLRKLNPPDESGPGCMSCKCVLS

Chain of GDP-bound KRAS wild-type protein (P01116 whole entry): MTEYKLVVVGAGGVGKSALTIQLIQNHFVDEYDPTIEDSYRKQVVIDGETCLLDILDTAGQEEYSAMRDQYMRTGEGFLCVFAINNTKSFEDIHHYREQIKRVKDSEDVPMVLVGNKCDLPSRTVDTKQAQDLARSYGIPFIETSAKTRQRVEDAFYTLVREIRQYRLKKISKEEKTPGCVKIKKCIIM

SMILES	Kd [1] [nM]	NRAS/KRAS (ratio of KD value for NRAS to KD value for KRAS) [2]	HRAS/KRAS (ratio of KD value for HRAS to KD value for KRAS) [3]
CCO[C@@H]1C[C@H]2C(=O)NC3(CCC3)C(=O)N(C)[C@@H](C3CCCC3)C(=O)N(C)[C@H](C(=O)N(C)CCOC)CC(=O)N(C)[C@@H](CC)C(=O)N[C@@H]([C@@H](C)CC)C(=O)N(C)CC(=O)N(C)[C@H]3C/C=C\CCN(C3=O)[C@@H](Cc3ccc(C(F)(F)F)cc3)C(=O)N(C)CC(=O)N[C@@H](CCc3cc(F)c(C(F)(F)F)c(F)c3)C(=O)N2C1 [PP1316, (2S,8S,12R,14S,20S,23S,27S,30S,36S,38Z)-20-cyclopentyl-8-[2-[3,5-difluoro-4-(trifluoromethyl)phenyl]ethyl]-12-ethoxy-27-ethyl-N-(2-methoxyethyl)-N,4,19,22,26,32,35-heptamethyl-30-[(1S)-1-methylpropyl]-3,6,9,15,18,21,25,28,31,34,42-undecaoxo-2-[[4-(trifluoromethyl)phenyl]methyl]spiro[1,4,7,10,16,19,22,26,29,32,35-undecazatricyclo[34.5.1.0^10,14]dotetracont-38-ene-17,1′-cyclobutane]-23-carboxamide]	0.072	A (a compound having 10 or more and less than 20 is denoted as A)	A (a compound having 10 or more and less than 20 is denoted as A)
CCO[C@@H]1C[C@H]2C(=O)NC3(CCC3)C(=O)N(C)[C@@H](C3CCCC3)C(=O)N(C)[C@H](C(=O)N(C)CCOC)CC(=O)N(C)[C@@H](CC(C)C)C(=O)N[C@@H]([C@@H](C)CC)C(=O)N(C)CC(=O)N(C)[C@H]3C/C=C\CCN(C3=O)[C@@H](Cc3ccc(C(F)(F)F)cc3)C(=O)N(C)CC(=O)N[C@@H](CCc3cc(F)c(C(F)(F)F)c(F)c3)C(=O)N2C1 [PP1317]	0.094	A (a compound having 10 or more and less than 20 is denoted as A)	B (a compound having 3 or more and less than 10 is denoted as B)
CCO[C@@H]1C[C@H]2C(=O)NC3(CCC3)C(=O)N(C)[C@@H](C3CCCC3)C(=O)N(C)[C@H](C(=O)N(C)CCOC)CC(=O)N(C)[C@@H](CC3CC3)C(=O)N[C@@H]([C@@H](C)CC)C(=O)N(C)CC(=O)N(C)[C@H]3C/C=C\CCN(C3=O)[C@@H](Cc3ccc(C(F)(F)F)cc3)C(=O)N(C)CC(=O)N[C@@H](CCc3cc(F)c(C(F)(F)F)c(F)c3)C(=O)N2C1 [PP1318]	0.091	A (a compound having 10 or more and less than 20 is denoted as A)	A (a compound having 10 or more and less than 20 is denoted as A)
CCO[C@@H]1C[C@H]2C(=O)NC3(CCC3)C(=O)N(C)[C@@H](C3CCCC3)C(=O)N(C)[C@H](C(=O)N(C)CCOC)CC(=O)N(C)[C@@H](C)C(=O)N[C@@H]([C@@H](C)CC)C(=O)N(C)CC(=O)N(C)[C@H]3C/C=C\CCN(C3=O)[C@@H](Cc3ccc(C(F)(F)F)cc3)C(=O)N(C)CC(=O)N[C@@H](CCc3cc(F)c(C(F)(F)F)c(F)c3)C(=O)N2C1 [PP1319, (2S,8S,12R,14S,20S,23S,27S,30S,36S,38Z)-20-cyclopentyl-8-[2-[3,5-difluoro-4-(trifluoromethyl)phenyl]ethyl]-12-ethoxy-N-(2-methoxyethyl)-N,4,19,22,26,27,32,35-octamethyl-30-[(1S)-1-methylpropyl]-3,6,9,15,18,21,25,28,31,34,42-undecaoxo-2-[[4-(trifluoromethyl)phenyl]methyl]spiro[1,4,7,10,16,19,22,26,29,32,35-undecazatricyclo[34.5.1.0^10,14]dotetracont-38-ene-17,1′-cyclobutane]-23-carboxamide]	0.069	A (a compound having 10 or more and less than 20 is denoted as A)	B (a compound having 3 or more and less than 10 is denoted as B)
CCO[C@@H]1C[C@H]2C(=O)NC3(CCC3)C(=O)N(C)[C@@H](C3CCCC3)C(=O)N(C)[C@H](C(=O)N(C)CCOC)CC(=O)N(C)[C@@H](CC)C(=O)N[C@@H]([C@@H](C)CC)C(=O)N(C)CC(=O)N(C)[C@H]3C/C=C\CCN(C3=O)[C@@H](Cc3ccc(C(F)(F)F)cc3)C(=O)N(C)CC(=O)N[C@@H](CCc3ccc(C(F)(F)F)c(OC)c3)C(=O)N2C1 [PP1321, (2S,8S,12R,14S,20S,23S,27S,30S,36S,38Z)-20-cyclopentyl-12-ethoxy-27-ethyl-N-(2-methoxyethyl)-8-[2-[3-methoxy-4-(trifluoromethyl)phenyl]ethyl]-N,4,19,22,26,32,35-heptamethyl-30-[(1S)-1-methylpropyl]-3,6,9,15,18,21,25,28,31,34,42-undecaoxo-2-[[4-(trifluoromethyl)phenyl]methyl]spiro[1,4,7,10,16,19,22,26,29,32,35-undecazatricyclo[34.5.1.0^10,14]dotetracont-38-ene-17,1′-cyclobutane]-23-carboxamide]	0.08	A (a compound having 10 or more and less than 20 is denoted as A)	B (a compound having 3 or more and less than 10 is denoted as B)
CCO[C@@H]1C[C@H]2C(=O)NC3(CCC3)C(=O)N(C)[C@@H](C3CCCC3)C(=O)N(C)[C@H](C(=O)N(C)CCOC)CC(=O)N(C)[C@@H](CC(C)C)C(=O)N[C@@H]([C@@H](C)CC)C(=O)N(C)CC(=O)N(C)[C@H]3C/C=C\CCN(C3=O)[C@@H](Cc3ccc(C(F)(F)F)cc3)C(=O)N(C)CC(=O)N[C@@H](CCc3ccc(C(F)(F)F)c(OC)c3)C(=O)N2C1 [PP1324, (2S,8S,12R,14S,20S,23S,27S,30S,36S,38Z)-20-cyclopentyl-12-ethoxy-27-isobutyl-N-(2-methoxyethyl)-8-[2-[3-methoxy-4-(trifluoromethyl)phenyl]ethyl]-N,4,19,22,26,32,35-heptamethyl-30-[(1S)-1-methylpropyl]-3,6,9,15,18,21,25,28,31,34,42-undecaoxo-2-[[4-(trifluoromethyl)phenyl]methyl]spiro[1,4,7,10,16,19,22,26,29,32,35-undecazatricyclo[34.5.1.0^10,14]dotetracont-38-ene-17,1′-cyclobutane]-23-carboxamide]	0.093	A (a compound having 10 or more and less than 20 is denoted as A)	A (a compound having 10 or more and less than 20 is denoted as A)

Second part, led by results:

Kd [1] [nM]	SMILES	NRAS/KRAS (ratio of KD value for NRAS to KD value for KRAS) [2]	HRAS/KRAS (ratio of KD value for HRAS to KD value for KRAS) [3]
0.057	CCO[C@@H]1C[C@H]2C(=O)NC3(CCC3)C(=O)N(C)[C@@H](C3CCCC3)C(=O)N(C)[C@H](C(=O)N(C)CCOC)CC(=O)N(C)[C@@H](CC(F)F)C(=O)N[C@@H]([C@@H](C)CC)C(=O)N(C)CC(=O)N(C)[C@H]3C/C=C\CCN(C3=O)[C@@H](Cc3ccc(C(F)(F)F)cc3)C(=O)N(C)CC(=O)N[C@@H](CCc3cc(F)c(C(F)(F)F)c(F)c3)C(=O)N2C1 [PP1320]	A (a compound having 10 or more and less than 20 is denoted as A)	A (a compound having 10 or more and less than 20 is denoted as A)
0.59	CCO[C@@H]1C[C@H]2C(=O)NC3(CCC3)C(=O)N(C)[C@@H](C3CCCC3)C(=O)N(C)[C@H](C(=O)N(C)CCOC)CC(=O)N(C)[C@@H](CC)C(=O)N[C@@H]([C@@H](C)CC)C(=O)N(C)CC(=O)N(C)[C@H]3C/C=C\CCN(C3=O)[C@@H](Cc3ccc(C(F)(F)F)cc3)C(=O)N(C)CC(=O)N[C@@H](CCc3ccc4sccc4c3)C(=O)N2C1 [PP1322]	A (a compound having 10 or more and less than 20 is denoted as A)	A (a compound having 10 or more and less than 20 is denoted as A)
0.55	CCO[C@@H]1C[C@H]2C(=O)NC3(CCC3)C(=O)N(C)[C@@H](C3CCCC3)C(=O)N(C)[C@H](C(=O)N(C)CCOC)CC(=O)N(C)[C@@H](CC(C)C)C(=O)N[C@@H]([C@@H](C)CC)C(=O)N(C)CC(=O)N(C)[C@H]3C/C=C\CCN(C3=O)[C@@H](Cc3ccc(C(F)(F)F)cc3)C(=O)N(C)CC(=O)N[C@@H](CCc3ccc4sccc4c3)C(=O)N2C1 [PP1325]	A (a compound having 10 or more and less than 20 is denoted as A)	A (a compound having 10 or more and less than 20 is denoted as A)
0.27	CCO[C@@H]1C[C@H]2C(=O)NC3(CCC3)C(=O)N(C)[C@@H](C3CCCC3)C(=O)N(C)[C@H](C(=O)N(C)CCOC)CC(=O)N(C)[C@@H](CC(C)C)C(=O)N[C@@H]([C@@H](C)CC)C(=O)N(C)CC(=O)N(C)[C@H]3C/C=C\CCN(C3=O)[C@@H](Cc3ccc(C(F)(F)F)cc3)C(=O)N(C)CC(=O)N[C@@H](CCc3ccc(Cl)c(Cl)c3)C(=O)N2C1 [PP1326]	AA (a compound having 20 or more is denoted as AA)	A (a compound having 10 or more and less than 20 is denoted as A)
0.11	CCO[C@@H]1C[C@H]2C(=O)NC3(CCC3)C(=O)N(C)[C@@H](C3CCCC3)C(=O)N(C)[C@H](C(=O)N(C)CCOC)CC(=O)N(C)[C@@H](CC3CC3)C(=O)N[C@@H]([C@@H](C)CC)C(=O)N(C)CC(=O)N(C)[C@H]3C/C=C\CCN(C3=O)[C@@H](Cc3ccc(C(F)(F)F)cc3)C(=O)N(C)CC(=O)N[C@@H](CCc3ccc(C(F)(F)F)c(OC)c3)C(=O)N2C1 [PP1327]	A (a compound having 10 or more and less than 20 is denoted as A)	A (a compound having 10 or more and less than 20 is denoted as A)
0.56	CCO[C@@H]1C[C@H]2C(=O)NC3(CCC3)C(=O)N(C)[C@@H](C3CCCC3)C(=O)N(C)[C@H](C(=O)N(C)CCOC)CC(=O)N(C)[C@@H](CC3CC3)C(=O)N[C@@H]([C@@H](C)CC)C(=O)N(C)CC(=O)N(C)[C@H]3C/C=C\CCN(C3=O)[C@@H](Cc3ccc(C(F)(F)F)cc3)C(=O)N(C)CC(=O)N[C@@H](CCc3ccc4sccc4c3)C(=O)N2C1 [PP1328]	A (a compound having 10 or more and less than 20 is denoted as A)	A (a compound having 10 or more and less than 20 is denoted as A)
